In patent publication US20070099855A1 (priority 2003, published 2007):

Test system: SARS-associated coronavirus
Assay: organism not typed
Type: cell-based
Conditions: for EC50: Vero
[1] = Vero cell cultures, tested as in Example 1
[2] = Vero cell cultures, cytopathic effect scored 72-96 h after infection, mean of eight assays

| Structure (SMILES) | effect on replication of the SARS-associated coronaviruses (Vero cells) | Therap. IndexI (Vero cells) | EC50 [1] [µM] | also measured |
| --- | --- | --- | --- | --- |
| O=c1cnn([C@@H]2O[C@H](CO)[C@@H](O)[C@H]2O)c(=O)[nH]1 [Compound 6-azauridine, 6-azauridine] | inhibited replication of SARS-CV at non-toxic doses | – | – | Selectivity Index (ratio CC50/EC50, Vero cells): 6; Selectivity Index (ratio CC50/EC50, Vero cells, listed as 6-azuridine): 5 |
| COC(=O)[C@@]1(C)CC[C@]2(C)CC[C@]3(C)C(=CC(=O)C4[C@@]5(C)CCC(OC6OC(C(=O)NN)C(O)C(O)C6OC6OC(C(=O)NN)C(O)C(O)C6O)C(C)(C)C5CC[C@]43C)C2C1 (some centres unmarked) [Compound 7] | – | 4 | 16 | – |
| COC(=O)[C@@]1(C)CC[C@]2(C)CC[C@]3(C)C(=CC(=O)C4[C@@]5(C)CCC(OC6OC(CO)C(O)C(O)C6OC6OC(CO)C(O)C(O)C6O)C(C)(C)C5CC[C@]43C)C2C1 (some centres unmarked) [Compound 8] | – | 6 | 8 | – |
| CC1(C)C(OC2OC(C(=O)O)C(O)C(O)C2OC2OC(C(=O)O)C(O)C(O)C2O)CC[C@@]2(C)C1CC[C@]1(C)C2C(=O)C=C2C3C[C@@](C)(C(=O)O)CC[C@]3(C)CC[C@]21C.N (some centres unmarked) [Glycyrrhizin Monoammonium Salt] | – | 2 | 327 | – |
| CC1(C)C(OC2OC(C(=O)O)C(O)C(O)C2OC2OC(C(=O)O)C(O)C(O)C2O)CC[C@]2(C)[C@H]3C(=O)C=C4[C@@H]5C[C@@](C)(C(=O)O)CC[C@]5(C)CC[C@@]4(C)[C@]3(C)CC[C@@H]12 (stereo partly drawn) [Glycyrrhizin, (3-beta,20-beta)-20-Carboxy-11-oxo-30-norolean-12-en-3-yl 2-O-beta-D-glucopyranuronosyl-alpha-D-glucopyranosiduronic acid] | – | – | – | EC50 (compound added after virus adsorption, Vero cells): 600 mg/L; EC50 (compound added during and after virus adsorption, Vero cells): 300 mg/L; EC50 (compound added during virus adsorption, Vero cells): 2400 mg/L; Selectivity Index (after virus adsorption, CC50/EC50): >33; Selectivity Index (during and after virus adsorption, CC50/EC50): >67 |
| COc1c(C)c2c(c(O)c1C/C=C(\C)CCC(=O)O)C(=O)OC2 [Mycophenolic acid] | did not affect replication | – | – | EC50 [2]: > 50 mg/L |
| NC(=O)c1[nH]nc([C@@H]2O[C@H](CO)[C@@H](O)[C@H]2O)c1O [Pyrazofurin] | inhibited replication of SARS-CV at non-toxic doses | – | – | Selectivity Index (ratio CC50/EC50, Vero cells): 12 |
| NC(=O)c1ncn([C@@H]2O[C@H](CO)[C@@H](O)[C@H]2O)n1 [Ribavirin] | did not affect replication | – | – | EC50 [2]: > 1000 mg/L |
